Laboratory results: US20040029871A1, “Pharmaceutical compounds for treating copd” (priority 2000, published 2004)
pIC50: −log10 of the molar value.

Each compound was assayed against T1, human MPO (Homo sapiens, UniProt P05164) (assay: in vitro MPO assay measuring production of hypochlorus acid (HOCl)). Conditions: not given.
T1 construct: purchased Planta
Type: biochemical
Description: Here we describe an in vitro MPO assay that was developed to assess inhibition of enzyme activity. Essentially the MPO assay was designed to measure the production of hypochlorus acid (HOCl), which is the key physiological product generated by the enzyme in vivo. An outline of the assay reactions is given: [drawing 5]
Compounds were preincubated with the MPO enzyme in buffer for about 15 min prior to start of reaction with H2O2. The whole reaction was carried out at room temperatutre for 10 min in a 96-well plate. […] All test concentrations were done in duplicated with at least two separate determinations n=2, unless otherwise stated. The inhibitory concentration for a compound is presentated as pIC50, which is −log IC50.

T1 sequence (P05164 279-745 limits assumed): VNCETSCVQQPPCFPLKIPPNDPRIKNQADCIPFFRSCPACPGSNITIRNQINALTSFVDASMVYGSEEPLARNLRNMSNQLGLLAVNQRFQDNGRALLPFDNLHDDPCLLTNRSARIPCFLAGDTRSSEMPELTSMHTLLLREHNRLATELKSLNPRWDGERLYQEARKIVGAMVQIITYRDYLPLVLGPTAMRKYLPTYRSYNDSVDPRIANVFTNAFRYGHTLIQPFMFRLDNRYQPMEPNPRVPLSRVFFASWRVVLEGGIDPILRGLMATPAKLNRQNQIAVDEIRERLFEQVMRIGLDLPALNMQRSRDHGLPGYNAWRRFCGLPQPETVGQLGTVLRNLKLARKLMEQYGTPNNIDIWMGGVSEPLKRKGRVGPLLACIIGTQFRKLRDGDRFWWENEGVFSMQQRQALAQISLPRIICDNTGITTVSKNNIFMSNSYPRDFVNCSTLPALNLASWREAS
T1 sequence (P05164 165-273 limits assumed): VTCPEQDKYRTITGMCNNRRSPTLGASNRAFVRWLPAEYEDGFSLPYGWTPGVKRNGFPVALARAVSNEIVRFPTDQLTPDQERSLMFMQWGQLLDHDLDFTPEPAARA

SMILES	pIC50
COc1ccc2[nH]cc(CCN)c2c1 [5-Methoxytryptamine]	6.20
c1ccc2[nH]ccc2c1 [Indole]	5.70

Same assay, conditions: 2.5 nM purified human MPO, 100 uM H2O2, pH 6.5, 15 min preincubation, 10 min at room temperature; pIC50 = -log IC50

SMILES	Inhibition of human MPO-HOCl production, pIC50
COc1ccc2[nH]cc(CCO)c2c1 [5-Methoxytryptophol]	6.3
Nc1ccc(S(=O)(=O)Nc2nccs2)cc1 [N-1(2 thiazolyl)-sulfanilamide]	6.0

Same assay, conditions: human MPO

SMILES	relative potency as inhibitor of HOCl production by human MPO (in words)
Nc1ccc(S(=O)(=O)c2ccc(N)cc2)cc1 [Dapsone]	most potent inhibitor of the sulfones/sulfonamides tested

Same assay, conditions: read-out: Inhibition of human MPO-HOCl production, pIC50 (converted)

SMILES	IC50
CCOC(=O)c1cccc(N)c1 [3-Aminobenzoic acid ethylester]	631 nM
Cc1c[nH]c2ccccc12 [3-Methylindole]	1260 nM
COc1ccc2[nH]ccc2c1 [5-Methoxyindole]	2510 nM
COc1ccc2cc[nH]c2c1 [6-Methoxyindole]	1580 nM
Nc1ccc(S(=O)(=O)c2ccc(N)cc2)cc1 [Dapsone]	631 nM
COc1ccc2[nH]cc(CCNC(C)=O)c2c1 [Melatonin]	794 nM
CN1C(C(=O)Nc2ccccn2)=C(O)c2ccccc2S1(=O)=O [Piroxicam]	2510 nM
Nc1ccc(S(=O)(=O)Nc2ncccn2)cc1 [Sulfadiazine]	6310 nM
[H]/N=C(/N)NS(=O)(=O)c1ccc(N)cc1 [Sulfaguanidine]	3160 nM
Nc1ccc(S(N)(=O)=O)cc1 [Sulfanilamide]	1000 nM
CC(=O)Nc1ccc(S(=O)(=O)Nc2ccc([N+](=O)[O-])cc2)cc1 [Sulfanitran]	7940 nM
Nc1ccc(S(=O)(=O)Nc2ccccn2)cc1 [Sulfapyridine]	2000 nM
Cc1noc(NS(=O)(=O)c2ccc(N)cc2)c1C [Sulfisoxazole]	6310 nM
COc1cc(C=O)ccc1O [Vanillin]	7940 nM
N=C(N)c1ccc(N)cc1 [p-Aminobenzamidine]	2510 nM

The compounds below were run on stimulated human neutrophils (assay: functional human neutrophil assay, HOCl production by PMA-stimulated neutrophils). Conditions: 2x10^6 neutrophils, PMA 1 μg/ml, 15 min preincubation, 30 min at 37C, read-out: Inhibition of HOCl production by stimulated human neutrophils, pIC50 (converted).
Type: cell-based
Description: Here we describe the use of a functional human neutrophil assay to determine the effects of MPO inhibitors on the production of HOCl. This assay detects the production of HOCl from stimulated (e.g. PMA, LPS, fMLP, zymozan) human neutrophils. Human neutrophils were purified from fresh heparinised blood by density centrifugation on Polymorphprep (Nycomed). These neutrophils were used immediately after purification. A standard reaction mixture contained the following: 2×10^6 neutrophils, 140 mM NaCl, 5 mM taurine, 0.5 mM MgCl2, 1 mM CaCl2 and 1 mg/ml glucose. Test compounds were made up in DMSO and added to cells, with a final DMSO concentration of 0.5%. Test compounds were given 15 min preincubation at 37C with neutrophils prior to the addition of the PMA stimulant (1 μg/ml). The assay was then allowed to progress for another 30 min at 37C. At the end of the incubation, supernatants were collected by centrifugation and assayed for HOCl by using the stop/development reagent as above. All compounds were tested in duplicate with at least two separate determinations n=2 from two different donors.

SMILES	IC50
Nc1ccc(S(=O)(=O)c2ccc(N)cc2)cc1 [Dapsone]	20000 nM
COc1cc(NC(C)CCCN)c2ncccc2c1 (stereo not drawn) [Primaquine]	12600 nM
Nc1ccc(S(N)(=O)=O)cc1 [Sulfanilamide]	15800 nM
Nc1ccc(S(=O)(=O)Nc2ccccn2)cc1 [Sulfapyridine]	31600 nM
